# From PMC9964503, “Effects of Apigenin on Pharmacokinetics of Dasatinib and Probable Interaction Mechanism” (Molecules, 2023)
# Columns and labels:
# CYP3A2 = assay: Hepatic and intestinal CYP3A2 protein expression (immunoblot); assay type: in vivo, rats
# Procedure: (§1) The animals were categorized into four groups (n = 6) and fasted for 12 h before the experiment. […] orally administered with normal saline for 7 days and Group II was orally administered DAS (25 mg/kg) on the 7th day. Group III was co-administered DAS with APG for 7 days and DAS (25 mg/kg p.o.) on the 7th day, 2 h after APG 40 mg/kg administration, and Group IV was administered with APG 40 mg/kg for 7 days. The blood was collected from the tail vein at various time points after DAS administration and subjected to centrifugation at 5000× g for 10 min to obtain plasma for DAS quantification using ultra pressure liquid chromatography with mass. At the end of the experiment, all animals were euthanized using carbon dioxide, and liver and intestine tissues were harvested and for Western blotting.
# (§2) A PierceTM BCA Protein Assay Kit (Thermo Fisher Scientific) was used to extract the total protein from the hepatic and intestinal tissues by bicinchoninic acid technique. Immunoblots were executed as per the methods of Towbin et al. (1979) with slight modification. Briefly, 10% SDS polyacrylamide gels were used to electrophorese 25 μg of hepatic and intestinal epithelial proteins. These proteins were then transferred to activated PVDF membranes and blocked with 4% skim milk and BSA in TBST. After that, membranes were treated with antibodies for CYP3A2 isozymes, active transporters P-glycoprotein/MDR1, BCRP/ABCG2, and β-actin protein expression for an overnight period (4 °C). The membrane strips were incubated with the suitable secondary antibodies for 2 h after repeated washing steps with 1% TBST and TBS (room temperature). The membrane strips were then washed four times with TBST for five minutes each time. Bands were developed using Luminata™ Western Chemiluminescent HRP Substrates (Millipore), followed by densitometric evaluation of the immunoblots.
# Pgp/MDR1 = assay: Hepatic and intestinal Pgp/MDR1 protein expression (immunoblot); assay type: in vivo, rats
# Procedure: as §1, §2
# BCRP/ABCG2 = assay: Hepatic and intestinal BCRP/ABCG2 protein expression (immunoblot); assay type: in vivo, rats
# Procedure: as §1, §2
# [1] = Pharmacokinetics of oral DAS in rats with or without APG pretreatment (UPLC-MS/MS, non-compartmental); assay type: in vivo; details: DAS in rat plasma, DAS 25 mg/kg p.o., alone or after APG 40 mg/kg p.o. for 7 days, mean ± SD
# Procedure: The Central Animal House facility of College of Pharmacy, King Saud University’s, Riyadh, Saudi Arabia, provided 24 healthy adult male Wistar rats (weighing 211–223 g), and the experiment was authorized by the Animal Ethics Committee of the College of Pharmacy, King Saud University (KSU-SE-21-58). All animals were retained in polypropylene cages: 6 animals were caged (n = 6) per cage with a 12-h light/dark cycle, at 25 °C in humane conditions with free access to food and water and adapted to the living conditions one week prior to experiment
# as §1
# Using UHPLC-MS/MS, DAS concentrations in rat plasma samples were determined. A mixture of DAS and IBR (internal standard) was separated on an Acquity BEH C18 column, and both compounds were eluted at a flow rate of 0.25 mL/min from a mobile phase consisting of acetonitrile, 0.1% formic acid, and 20mM ammonium acetate (95:5). The entire duration of the study was about 2.5 min. The auto-sampler was kept at 10 °C, while the column oven was kept at a constant 40 °C. Electrospray ionization was used to ionize samples in a positive direction. […] Multiple reaction monitoring (MRM) mode detection and quantitation of analyte (DAS) and IS (IBR) employed the precursor to product ion transition of 488.06 and gt; 401.1 and 441.16 and gt; 84.04, respectively. Capillary voltage was 3.4 kV, source temperature was 150 °C, and desolvation temperature was 350 °C for optimum sample ionization using MS/MS. A flow rate of 600 L/h of nitrogen gas was utilized for the desolvation process, whereas a flow rate of 0.18 mL/min of argon gas was used for the collision process. The analyte and IS cone voltages were 46 V and 48 V, and the collision energy was 28 eV and 40 eV, respectively. Precision and accuracy were partially confirmed for the assay using the “US Food and Drug Administration 2018 guideline for bioanalytical technique validation,” and found to be within acceptable ranges of 15% both intra- and inter-day. The samples were acquired using Masslynx 4.1 SCN 805, and then processed using TargetLynks. After making a few modifications to a previously reported study, it was put to use.
# A plasma sample of 150 µL was aliquoted into an Eppendorf tube, along with 20 µL of a spiked internal standard (250 ng/mL), and 1 mL of ethyl acetate was also added for the extraction phase. For 10 min at 4 °C and 10,500 rpm, centrifuged samples were shaken for 15 min after being vortexed. Finally, 800 µL of the organic upper layer were transferred to an Eppendorf tube and dried in a sample concentrator at room temperature. Following reconstitution with 150 µL of acetonitrile, the dried residue was transported to UHPLC-MS/MS for 5 µL of analysis.
# PK Solver software was employed to calculate the pharmacokinetic parameters using non-compartmental model. The calculated parameters were as follows: half-life (T1/2), elimination rate constant (Kel), time to maximum concentration (Tmax), the maximum concentration (Cmax), area under concentration time curve (AUC), the area under the moment curve (AUMC); the volume of distribution (Vd), the mean residence time (MRT), and clearance (Cl) were examined.
# [2] = intestine, APG 40 mg/kg only pretreatment vs normal rats
# [3] = liver, APG 40 mg/kg only pretreatment vs normal rats
# [4] = intestine, DAS peroral vs normal rats
# [5] = liver, DAS peroral vs normal rats
smiles,measurement,setting,value
"O=c1cc(-c2ccc(O)cc2)oc2cc(O)cc(O)c12 [APG, 4′,5,7-trihydroxyflavone]",inhibition of intestinal CYP3A2 protein expression,CYP3A2; [2],90.97%
same,inhibition of hepatic CYP3A2 protein expression,CYP3A2; [3],87.24%
same,inhibition of intestinal Pgp/MDR1 protein expression,Pgp/MDR1; [2],87.84%
same,inhibition of hepatic Pgp/MDR1 protein expression,Pgp/MDR1; [3],90.67%
same,inhibition of intestinal BCRP/ABCG2 protein expression,BCRP/ABCG2; [2],91.50%
same,inhibition of hepatic BCRP/ABCG2 protein expression,BCRP/ABCG2; [3],91.05%
"Cc1nc(Nc2ncc(C(=O)Nc3c(C)cccc3Cl)s2)cc(N2CCN(CCO)CC2)n1 [DAS, Dasatinib]",AUC0-t,[1],1635.84 ± 45.29 ng·h/mL
same,AUMC0-inf_obs,[1],16200.10 ± 1656.57 ng/mL × h^2
same,Cl,[1],0.012 ± 0.0005 (mg/kg)/(ng/mL)/h
same,Cmax,[1],263.06 ± 12.33 ng/mL
same,Vd,[1],0.087 ± 0.005 (mg/kg)/(ng/mL)
same,Tmax,"[1]; male, Wistar, po",1 h
same,half-life,"[1]; male, Wistar, po",4.97 ± 0.48 h
same,k el,"[1]; male, Wistar, po",3.89e-05 s⁻¹
same,AUC(0-inf),"[1]; male, Wistar, po, read-out: AUC0-inf_obs",2060 ± 97 ng·h/mL
same,MRT inf,"[1]; male, Wistar, po, read-out: MRT 0-inf_obs",7.84 ± 0.46 h
same,increase of intestinal CYP3A2 protein expression,"CYP3A2; intestine, DAS administered rats vs normal control rats",79.13%
same,induction of intestinal Pgp/MDR1 protein expression,Pgp/MDR1; [4],91.65%
same,induction of hepatic Pgp/MDR1 protein expression,Pgp/MDR1; [5],93.08%
same,induction of intestinal BCPR/ABCG2 protein expression,BCRP/ABCG2; [4],95.66%
same,induction of hepatic BCPR/ABCG2 protein expression,BCRP/ABCG2; [5],92.55%
